Measured values: patent US12226412B2, “Heteroaryl-ketone fused azadecalin glucocorticoid receptor modulators” (Corcept Therapeutics, Inc., priority 2012, dated 2025)
Like-named read-outs stand apart in the source and are kept apart here.

Columns and labels:
human recombinant GR = biological target: T1, human recombinant GR (Homo sapiens, UniProt P04150); test: Human glucocorticoid receptor (GR) fluorescence polarisation (FP) binding assay
T1 construct: purchased PanVera P2812
T1 sequence (P04150 1-777): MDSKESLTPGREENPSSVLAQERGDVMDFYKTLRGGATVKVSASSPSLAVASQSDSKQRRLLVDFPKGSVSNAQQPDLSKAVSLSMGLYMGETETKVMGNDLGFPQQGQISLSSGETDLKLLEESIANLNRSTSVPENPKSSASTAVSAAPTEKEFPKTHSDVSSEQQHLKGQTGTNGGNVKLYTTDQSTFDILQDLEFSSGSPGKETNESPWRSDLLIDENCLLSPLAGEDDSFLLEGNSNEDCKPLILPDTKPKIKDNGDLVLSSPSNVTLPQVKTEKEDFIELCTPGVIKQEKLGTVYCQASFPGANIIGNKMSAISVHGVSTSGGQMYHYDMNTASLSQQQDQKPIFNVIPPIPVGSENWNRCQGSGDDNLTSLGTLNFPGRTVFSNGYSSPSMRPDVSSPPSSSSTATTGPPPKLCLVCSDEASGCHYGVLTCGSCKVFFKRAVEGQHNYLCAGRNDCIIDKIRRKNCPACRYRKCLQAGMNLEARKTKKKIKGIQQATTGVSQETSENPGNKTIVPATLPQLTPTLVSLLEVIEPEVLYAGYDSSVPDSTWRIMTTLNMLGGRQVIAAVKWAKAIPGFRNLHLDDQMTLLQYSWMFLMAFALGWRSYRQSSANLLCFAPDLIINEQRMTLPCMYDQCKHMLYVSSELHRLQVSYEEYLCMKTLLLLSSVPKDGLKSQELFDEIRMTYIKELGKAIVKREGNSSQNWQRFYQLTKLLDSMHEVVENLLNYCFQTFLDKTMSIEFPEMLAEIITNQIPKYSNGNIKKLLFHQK
In short: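 Competition fluorescence polarisation: 0.5 nM GS Red labelled glucocorticoid and 1 nM recombinant human GR with 8-point half-log compound series, 1% DMSO, 4 h room temperature, potassium phosphate pH 7.4 buffer with molybdate, EDTA, DTT. Affinity derived from the drop in polarisation, normalised to blank wells.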

[1] = test system: induction of TAT by dexamethasone in HepG2 cells; test: HepG2 tyrosine aminotransferase (TAT) assay; assay type: cell-based, human
[2] = human recombinant GR, fluorescence polarisation binding assay, read-out: GR binding
[3] = HepG2 cells, challenge of 100 nM dexamethasone, Ki from IC50 by Cheng and Prusoff equation

Row | Compound | Ki (human recombinant GR; [2]) | Ki [1, 3] | Ki (human recombinant GR) | Ki [1]
1 | Cc1ccc(S(=O)(=O)N2CCC3=Cc4c(cnn4-c4ccc(F)cc4)C[C@]3(C(=O)c3nccs3)C2)cc1F [Example 12C, (R)-(6-((3-fluoro-4-methylphenyl)sulfonyl)-1-(4-fluorophenyl)-4,4a,5,6,7,8-hexahydro-1H-pyrazolo[3,4-g]isoquinolin-4a-yl)(thiazol-2-yl)methanone] | < 0.5 nM | 20 to 100 nM | – | –
2 | Cc1ccc(S(=O)(=O)N2CCC3=Cc4c(cnn4-c4ccc(F)cc4)C[C@]3(C(=O)c3cscn3)C2)cc1 [Example 11K, (R)-(1-(4-fluorophenyl)-6-tosyl-4,4a,5,6,7,8-hexahydro-1H-pyrazolo[3,4-g]isoquinolin-4a-yl)(thiazol-4-yl)methanone] | < 0.5 nM | < 20 nM | – | –
3 | O=C(c1nccs1)[C@]12Cc3cnn(-c4ccc(F)cc4)c3C=C1CCN(S(=O)(=O)c1ccccc1)C2 [Example 12D, (R)-(1-(4-fluorophenyl)-6-(phenylsulfonyl)-4,4a,5,6,7,8-hexahydro-1H-pyrazolo [3,4-g]isoquinolin-4a-yl)(thiazol-2-yl)methanone] | < 0.5 nM | < 20 nM | – | –
4 | O=C(c1nccs1)[C@]12Cc3cnn(-c4ccc(F)cc4)c3C=C1CCN(S(=O)(=O)c1cncc(N3CCCC3)c1)C2 [Example 7A, (R)-(1-(4-fluorophenyl)-6-((5-(pyrrolidin-1-yl)pyridin-3-yl)sulfonyl)-4,4a,5,6,7,8-hexahydro-1H-pyrazolo[3,4-g]isoquinolin-4a-yl)(thiazol-2-yl)methanone] | < 0.5 nM | 20 to 100 nM | – | –
5 | Cc1c(S(=O)(=O)N2CCC3=Cc4c(cnn4-c4ccc(F)cc4)C[C@]3(C(=O)c3cc(C(F)(F)F)ccn3)C2)cnn1C [Example 11BN, (R)-(6-((1,5-dimethyl-1H-pyrazol-4-yl)sulfonyl)-1-(4-fluorophenyl)-4,4a,5,6,7,8-hexahydro-1H-pyrazolo[3,4-g]isoquinolin-4a-yl)(4-(trifluoromethyl)pyridin-2-yl)methanone] | < 0.5 nM | < 20 nM | – | –
6 | CC(C)n1cc(S(=O)(=O)N2CCC3=Cc4c(cnn4-c4ccc(F)cc4)C[C@]3(C(=O)c3ccccn3)C2)cn1 [Example 11CD, (R)-(1-(4-fluorophenyl)-6-((1-isopropyl-1H-pyrazol-4-yl)sulfonyl)-4,4a,5,6,7,8-hexahydro-1H-pyrazolo[3,4-g]isoquinolin-4a-yl)(pyridin-2-yl) methanone] | < 0.5 nM | < 20 nM | – | –
7 | COc1ccnc(C(=O)[C@]23Cc4cnn(-c5ccc(F)cc5)c4C=C2CCN(S(=O)(=O)c2cc(F)c(F)c(F)c2)C3)c1 [Example 1M, (R)-(1-(4-fluorophenyl)-6-((3,4,5-trifluorophenyl)sulfonyl)-4,4a,5,6,7,8-hexahydro-1H-pyrazolo[3,4-g]isoquinolin-4a-yl)(4-methoxypyridin-2-yl)methanone] | < 0.5 nM | < 20 nM | – | –
8 | Cc1cc(S(=O)(=O)N2CCC3=Cc4c(cnn4-c4ccc(F)cc4)C[C@]3(C(=O)c3ncc(C)s3)C2)n(C)n1 [Example 12U, (R)-(6-((1,3-dimethyl-1H-pyrazol-5-yl)sulfonyl)-1-(4-fluorophenyl)-4,4a,5,6,7,8-hexahydro-1H-pyrazolo[3,4-g]isoquinolin-4a-yl)(5-methylthiazol-2-yl)methanone] | > 1 nM | 20 to 100 nM | – | –
9 | O=C(c1cscn1)[C@]12Cc3cnn(-c4ccc(F)cc4)c3C=C1CCN(S(=O)(=O)c1ccc(Cl)c(Cl)c1)C2 [Example 19, (R)-(6-((3,4-dichlorophenyl)sulfonyl)-1-(4-fluorophenyl)-4,4a,5,6,7,8-hexahydro-1H-pyrazolo[3,4-g]isoquinolin-4a-yl)(thiazol-4-yl)methanone] | < 0.5 nM | < 20 nM | – | –
10 | Cn1ccc(S(=O)(=O)N2CCC3=Cc4c(cnn4-c4ccc(Cl)cc4)C[C@]3(C(=O)c3cc(C(F)(F)F)ccn3)C2)n1 [Example 11BR, (R)-(1-(4-chlorophenyl)-6-((1-methyl-1H-pyrazol-3-yl)sulfonyl)-4,4a,5,6,7,8-hexahydro-1H-pyrazolo[3,4-g]isoquinolin-4a-yl)(4-(trifluoromethyl)pyridin-2-yl)methanone] | 0.5 to 1 nM | < 20 nM | – | –
11 | Cn1ncc(S(=O)(=O)N2CCC3=Cc4c(cnn4-c4ccc(F)cc4)C[C@]3(C(=O)c3cc(C(F)(F)F)ccn3)C2)n1 [Example 11CE, (R)-(1-(4-fluorophenyl)-6-((2-methyl-2H-1,2,3-triazol-4-yl)sulfonyl)-4,4a,5,6,7,8-hexahydro-1H-pyrazolo[3,4-g]isoquinolin-4a-yl)(4-(trifluoromethyl)pyridin-2-yl)methanone] | < 0.5 nM | < 20 nM | – | –
12 | Cc1cccc(S(=O)(=O)N2CCC3=Cc4c(cnn4-c4ccc(F)cc4)C[C@]3(C(=O)c3cscn3)C2)c1 [Example 11F, (R)-(1-(4-fluorophenyl)-6-(m-tolylsulfonyl)-4,4a,5,6,7,8-hexahydro-1H-pyrazolo [3,4-g]isoquinolin-4a-yl)(thiazol-4-yl)methanone] | < 0.5 nM | 20 to 100 nM | – | –
13 | Cc1cnc(C(=O)[C@]23Cc4cnn(-c5ccc(F)cc5)c4C=C2CCN(S(=O)(=O)c2cnn(C)c2)C3)s1 [Example 12T, (R)-(1-(4-fluorophenyl)-6-((1-methyl-1H-pyrazol-4-yl)sulfonyl)-4,4a,5,6,7,8-hexahydro-1H-pyrazolo[3,4-g]isoquinolin-4a-yl)(5-methylthiazol-2-yl)methanone] | < 0.5 nM | < 20 nM | – | –
14 | Cc1ccnc(C(=O)[C@]23Cc4cnn(-c5ccc(F)cc5)c4C=C2CCN(S(=O)(=O)c2cn(C)nc2C)C3)c1 [Example 11AQ, (R)-(6-((1,3-dimethyl-1H-pyrazol-4-yl)sulfonyl)-1-(4-fluorophenyl)-4,4a,5,6,7,8-hexahydro-1H-pyrazolo[3,4-g]isoquinolin-4a-yl)(4-methylpyridin-2-yl)methanone] | < 0.5 nM | 20 to 100 nM | – | –
15 | CN(C)C(=O)c1cccc(S(=O)(=O)N2CCC3=Cc4c(cnn4-c4ccc(F)cc4)C[C@]3(C(=O)c3ccccn3)C2)c1 [Example 14, (R)-3-((1-(4-fluorophenyl)-4a-picolinoyl-4a,5,7,8-tetrahydro-1H-pyrazolo[3,4-g]isoquinolin-6 (4H)-yl)sulfonyl)-N,N-dimethylbenzamide] | < 0.5 nM | 20 to 100 nM | – | –
16 | Cc1cnc(C(=O)[C@]23Cc4cnn(-c5ccc(F)cc5)c4C=C2CCN(S(=O)(=O)c2ccc(Cl)c(F)c2)C3)s1 [Example 12R, (R)-(6-((4-chloro-3-fluorophenyl)sulfonyl)-1-(4-fluorophenyl)-4,4a,5,6,7,8-hexahydro-1H-pyrazolo[3,4-g]isoquinolin-4a-yl)(5-methylthiazol-2-yl)methanone] | 0.5 to 1 nM | < 20 nM | – | –
17 | O=C(c1ccccn1)[C@]12Cc3cnn(-c4ccc(F)cc4)c3C=C1CCN(S(=O)(=O)c1cccc(C(F)(F)F)c1)C2 [Example 5C, (R)-(1-(4-fluorophenyl)-6-((3-(trifluoromethyl)phenyl)sulfonyl)-4,4a,5,6,7,8-hexahydro-1H-pyrazolo[3,4-g]isoquinolin-4a-yl)(pyridin-2-yl)methanone] | – | – | < 0.5 nM | < 20 nM
18 | O=C(c1cncs1)[C@]12Cc3cnn(-c4ccc(F)cc4)c3C=C1CCN(S(=O)(=O)c1ccc(C(F)(F)F)cc1)C2 [Example 5I, (R)-(1-(4-fluorophenyl)-6-((4-(trifluoromethyl)phenyl)sulfonyl)-4,4a,5,6,7,8-hexahydro-1H-pyrazolo[3,4-g]isoquinolin-4a-yl)(thiazol-5-yl)methanone] | – | – | < 0.5 nM | > 100 nM
19 | Cn1nccc1S(=O)(=O)N1CCC2=Cc3c(cnn3-c3ccc(F)cc3)C[C@]2(C(=O)c2cc(C(F)(F)F)ccn2)C1 [Example 11BM, (R)-(1-(4-fluorophenyl)-6-((1-methyl-1H-pyrazol-5-yl)sulfonyl)-4,4a,5,6,7,8-hexahydro-1H-pyrazolo[3,4-g]isoquinolin-4a-yl)(4-(trifluoromethyl)pyridin-2-yl)methanone] | < 0.5 nM | < 20 nM | – | –
20 | Cc1ccnc(C(=O)[C@]23Cc4cnn(-c5ccc(F)cc5)c4C=C2CCN(S(=O)(=O)c2cc(F)c(F)c(F)c2)C3)c1 [Example 11X, (R)-(1-(4-fluorophenyl)-6-((3,4,5-trifluorophenyl)sulfonyl)-4,4a,5,6,7,8-hexahydro-1H-pyrazolo[3,4-g]isoquinolin-4a-yl)(4-methylpyridin-2-yl)methanone] | < 0.5 nM | < 20 nM | – | –
21 | O=C(c1ccccn1)[C@]12Cc3cnn(-c4ccccc4)c3C=C1CCN(S(=O)(=O)c1ccc(Cl)c(Cl)c1)C2 [Example 15B, (R)-(6-((3,4-dichlorophenyl)sulfonyl)-1-phenyl-4,4a,5,6,7,8-hexahydro-1H-pyrazolo[3,4-g]isoquinolin-4a-yl)(pyridin-2-yl)methanone] | < 0.5 nM | < 20 nM | – | –
